This is an account of results in ChEMBL document CHEMBL5230089, “Small-Molecule Fms-like Tyrosine Kinase 3 Inhibitors: An Attractive and Efficient Method for the Treatment of Acute Myeloid Leukemia” (J Med Chem, 2020).

One assay relates to MV4-11. Description: Antiproliferative activity against human MV4-11 cells assessed as cell growth inhibition measured after 48 hrs by cell titer glo assay. Type of assay: functional, cell-based. Conditions: MV4-11, 48 h.
Assay [1] concerns the target Receptor-type tyrosine-protein kinase FLT3 (Homo sapiens, UniProt P36888, ITD).

pIC50: −log10 of the molar value.

Sequence of Receptor-type tyrosine-protein kinase FLT3 (P36888 whole entry, looked up, change not shown): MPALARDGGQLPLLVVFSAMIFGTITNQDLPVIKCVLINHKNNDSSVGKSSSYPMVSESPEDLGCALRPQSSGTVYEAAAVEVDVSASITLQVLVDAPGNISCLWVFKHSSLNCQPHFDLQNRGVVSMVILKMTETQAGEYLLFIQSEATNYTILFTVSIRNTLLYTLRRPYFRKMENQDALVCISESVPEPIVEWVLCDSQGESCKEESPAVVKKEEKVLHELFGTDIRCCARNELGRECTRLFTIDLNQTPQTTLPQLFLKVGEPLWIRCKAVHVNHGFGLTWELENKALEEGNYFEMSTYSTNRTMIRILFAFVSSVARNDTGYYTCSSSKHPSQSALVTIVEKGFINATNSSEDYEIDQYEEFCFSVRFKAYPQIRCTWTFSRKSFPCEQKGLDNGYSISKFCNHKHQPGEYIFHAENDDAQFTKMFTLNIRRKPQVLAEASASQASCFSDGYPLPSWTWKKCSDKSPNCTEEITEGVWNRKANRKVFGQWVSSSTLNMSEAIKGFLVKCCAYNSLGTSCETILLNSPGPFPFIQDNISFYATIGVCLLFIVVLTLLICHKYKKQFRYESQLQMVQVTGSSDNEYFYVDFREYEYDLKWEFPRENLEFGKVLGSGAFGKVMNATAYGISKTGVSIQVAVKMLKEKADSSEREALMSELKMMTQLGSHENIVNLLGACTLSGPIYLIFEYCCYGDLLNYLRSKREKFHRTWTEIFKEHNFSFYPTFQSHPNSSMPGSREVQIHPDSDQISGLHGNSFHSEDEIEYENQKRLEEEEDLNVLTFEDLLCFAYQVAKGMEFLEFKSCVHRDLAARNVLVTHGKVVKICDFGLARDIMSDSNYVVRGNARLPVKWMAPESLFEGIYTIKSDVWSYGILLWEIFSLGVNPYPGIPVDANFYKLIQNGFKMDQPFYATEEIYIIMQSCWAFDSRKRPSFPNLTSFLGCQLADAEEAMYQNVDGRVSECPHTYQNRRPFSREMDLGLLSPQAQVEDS

Turning to `COc1cc(Nc2nc3cccc(-c4cccc(C(N)=O)c4)c3o2)ccc1N1CCNCC1`, the pIC50 is 7.43 with MV4-11 and 9.39 in assay [1].

What is called pIC50 is the IC50 on a negative log10 scale, so that one unit is a factor of ten.
